Literature values as cited in US20130224131A1, “4-AMIDINO BENZYLAMINES FOR COSMETIC AND/OR DERMATOLOGICAL USE” (DSM IP ASSETS B.V., priority 2007, published 2013).

Target: urokinase (Homo sapiens, UniProt P00749)
Details: qualitative statement, described in WO 01/96286

SMILES	urokinase-inhibiting activity
N=C(N)c1ccc(CNC(=O)C(CCc2ccccc2)NC(=O)[C@@H](CO)NS(=O)(=O)Cc2ccccc2)cc1 (stereo partly drawn) [benzylsulfonyl-D-Ser-homoPhe-(4-amidino-benzylamide)]	potent and highly specific urokinase-inhibiting activity
N=C(N)c1ccc(CNC(=O)CNC(=O)[C@@H](CO)NS(=O)(=O)Cc2ccccc2)cc1 [benzylsulfonyl-D-Ser-Gly-4-amidino-benzylamide]	potent and highly specific urokinase-inhibiting activity
N=C(N)c1ccc(CNC(=O)[C@H](CCCCN)NC(=O)[C@@H](CO)NS(=O)(=O)Cc2ccccc2)cc1 [benzylsulfonyl-D-Ser-Lys-(4-amidino-benzylamide)]	potent and highly specific urokinase-inhibiting activity
